Data published in patent US5530095A, “Peptides of melanin concentrating hormone precursor” (The Salk Institute for Biological Studies, priority 1995, dated 1996).
Bridge positions count the residues as written; N and C are the ends. Ends that are not written are not given here. Peptide text beside a SMILES is read from it.

Key:
[1] = tested on: rabbit anti-salmon MCH antibody (Antibody PBL #171); test: Radioimmunoassay based on rabbit anti-salmon MCH antibody PBL #171 with 125I-salmon MCH tracer; assay type: binding; details: for cross-reactivity in the salmon MCH radioimmunoassay: Antibody PBL #171
Description: Salmon MCH, having the formula [drawing 7] is synthesized and purified as described in Example I. It is then conjugated to human alpha-globulins (U.S. Biochemicals, Frac IV) via glutaraldehyde by a reaction well known in the art. The salmon MCH-human alpha-globulins conjugate is diluted with physiological saline (0.9%s/v) to a final concentration of 1 mg total protein per milliliter Freund's Complete Adjuvant Modified M. butyricum (Calbiochem) is emulsified with an equal volume of saline containing either 1 mg conjugate/ml (for initial injections) or 0.5 mg conjugate/ml (for boosters). For each immunization, the rabbits receive a total of 1 ml emulsion in 20-30 intradermal sites; they are injected every 2 weeks and bled through an ear vein 7 days after each booster. Blood is allowed to clot, and serum is separated from cells by centrifugation. The antiserum from each bleeding is characterized with respect to titer and affinity. Some of this antiserum is labelled PBL #171.
Salmon MCH (1 μg) is radiolabelled using 1 mCurie Na^125 I (New England Nuclear, NEZ 033L) and 1 μg Chloramine T in a total volume of 40 μl of 1.25M sodium phosphate buffer, pH 7.5. Reaction is allowed to proceed for 30-45 seconds and then immediately quenched by the addition of 10 mg bovine serum albumin (BSA). ^125 I-salmon MCH is then purified by adsorption and elution from a BondElut C18 cartridge (Analytichem International). The eluant from the C18 cartridge is reduced to about 200 μl using a Savant Speed-Vac and then further purified by HPLC using a Vydac C18 column, 0.46×25 cm, 5 μm, 300 Å pore size. Buffer A is 0.1% trifluoroacetic acid (TFA); buffer B is 60% acetonitrile in 0.1% TFA. ^125 I-salmon MCH is loaded at 35% B at a flow rate of 1.5 ml/min, and a gradient is then run to 70% B in 40 minutes. Peak tubes of radioactivity are made 0.5% final in BSA. Several peaks of radioactivity are reproducibly eluted, and the first major zone of radioactivity is routinely used for the radioimmunoassay.
Throughout the purification, fractions are monitored using an RIA based upon this rabbit anti-salmon MCH antibody. Aliquots for assay are transferred into glass tubes containing BSA (10 μl of 10 mg/ml) and dried in a Savant Speed Vac. Fractions are resuspended in RIA assay buffer and pH checked and adjusted if necessary with NaOH. The radioimmunoassay is carried out using chilled reagents and with tubes partially immersed in ice water. On day one, 100 μl of buffer with Antibody PBL #171 1/24,000 dilution (1/120,000 final dilution) is added to glass tubes containing standard or test samples or buffer only in a volume of 300 μl. All treatments are tested in duplicate. Buffer is 0.1M sodium chloride, 0.05M sodium phosphate, 0.025M ethylenediaminetetraacetic acid (EDTA), 0.1% sodium azide, pH 7.5 (SPEA buffer) with 0.1% BSA. Standards ranging from 0.5 to 2000 pg of synthetic salmon MCH are used. Samples are tested at 2-5 dose levels. After these additions, tubes are vortexed and incubated at 4 ° C. for 24 hours. On day two, 20,000 cpm of ^125 -salmon MCH with 0.5% normal rabbit serum diluted in SPEA buffer +0.1% BSA is added in a volume of 100 μl to all tubes. The tubes are vortexed and returned to the cold for approximately 24 hours. On day three, tracer bound to antibody is precipitated with sheep anti-rabbit gamma globulins (100 μl, 1/40 dilution) and 0.5 ml of 10% (w/v) polyethylene glycol (SIGMA, MW=6,000 to 8,000). Tubes are vortexed and incubated 15 to 30 minutes at room temperature. Tubes are washed with 1 ml of SPEA buffer and centrifuged at 4° C. for 30-45 minutes at 2000× g. Supernatants are decanted, and pellets are counted in a gamma counter. Results are calculated using a standard logit/log radioimmunoassay data processing program NICHD RRB, NIH.

[2] = Biological potency in mammalian assays
[3] = tested on: rat pituitary halves (secretion of ACTH); test: In vitro assay using rat pituitary halves to monitor secretion of ACTH; assay type: cell-based
Description: In vitro assays are performed with the mammalian MCH and the synthetic salmon MCH peptides, using rat pituitary halves to monitor for the secretion of ACTH. Assays of this type are described in more detail in Proc. Natl. Acad. Sci., 85, 5556-5560 (1988). […] As a result, it is believed that mammalian MCH should be useful as a natural, peptide regulator of the pituitary-adrenal axis. It is likewise believed that mammalian MCH peptides will be useful for clinical application in the treatment of pigment disorders as well as in the diagnosis and therapy of melanoma. It is also believed that they will be effective in the treatment of certain forms of dementia and may have uses in connection with nerve damage situations.

[4] = tested on: melanosomes in amphibians; details: cited from earlier work
fish melanophores = details: cited from earlier work
[5] = tested on: antibodies against human GRF; test: Cross-reaction with antibodies against human GRF; assay type: binding; details: suggested by homology of human GRF 30-37 with NGE 12-19
Excerpt: The sequences of the NGE's correspond to the sequences of amino acids 110-128 of the MCH precursors (see Tables 1 and 2, below). […] It is thought that NGE's, like NEI, have a biological function in vivo.

Molecule	cross-reactivity in the salmon MCH radioimmunoassay [1]	also measured
human GRF(1-40)-OH: human growth hormone releasing factor (1-40), free acid (YADAIFTNSYRKVLGQLSARKLLQDIMSRQQGESNQERGA-OH; UniProt P01286 32-71, looked up, fragment)	no cross-reactivity	–
CSCC[C@@H]1NC(=O)[C@@H](NC(=O)[C@H](CCCNC(=N)N)NC(=O)[C@H](CCSC)NC(=O)[C@@H](NC(=O)[C@@H](N)CC(=O)O)[C@@H](C)O)CSSC[C@@H](C(=O)N[C@@H](Cc2c[nH]c3ccccc23)C(=O)N[C@@H](CCC(=O)O)C(=O)N[C@H](C(=O)O)C(C)C)NC(=O)[C@@H]2CCCN2C(=O)[C@H](CCCNC(=N)N)NC(=O)[C@H](Cc2ccc(O)cc2)NC(=O)[C@H](C(C)C)NC(=O)[C@H](CCCNC(=N)N)NC(=O)CNC(=O)[C@H](C(C)C)NC1=O [salmon MCH] (H-DTMRCMVGRVYRPCWEV-OH; disulfide 5-14)	–	EC50 in the radioimmunoassay ([1]; Antibody PBL #171 1/120,000 final dilution, 125I-salmon MCH tracer, n=10): 18.5 ± 3.2 pg; biological potency in mammalian assays [2]: extremely little biological potency; modulation of ACTH secretion/production [3]: substantially no effect on the secretion of ACTH; effect on melanosomes in amphibians [4]: causing dispersal of melanosomes; melanosome aggregation (fish melanophores): induces melanosome aggregation
Gly-XNGE -Phe-Pro-Ala-Glu-Asn-Gly-Val-Gln-Asn-Thr-Glu-Ser-Thr-Gln-Glu	–	cross-reaction of anti-GRF antibodies [5]: cross-react
SS-14: SS-14 peptide tested for RIA cross-reactivity (AGCKNFFWKTFTSC; ends and bridges not checked; cysteine pairing not given here; UniProt P61278 103-116, looked up)	no cross-reactivity	–
SS-28: SS-28 peptide tested for RIA cross-reactivity (SANSNPAMAPRERKAGCKNFFWKTFTSC; ends and bridges not checked; cysteine pairing not given here; UniProt P61278 89-116, looked up)	no cross-reactivity	–
NC(=O)CC[C@@H]1NC(=O)[C@H](Cc2ccccc2)NC(=O)[C@H](Cc2ccc(O)cc2)NC(=O)[C@@H](N)CSSC[C@@H](C(=O)N2CCC[C@H]2C(=O)N[C@@H](CCCN=C(N)N)C(=O)NCC(N)=O)NC(=O)[C@H](CC(N)=O)NC1=O [arginine vasopressin]	no cross-reactivity	–
CSCC[C@@H]1NC(=O)[C@@H](NC(=O)[C@H](CCCNC(=N)N)NC(=O)[C@H](CC(C)C)NC(=O)[C@H](CCSC)NC(=O)[C@H](CC(=O)O)NC(=O)[C@H](Cc2ccccc2)NC(=O)[C@@H](N)CC(=O)O)CSSC[C@@H](C(=O)N[C@@H](Cc2c[nH]c3ccccc23)C(=O)N[C@@H](CCC(N)=O)C(=O)N[C@H](C(=O)O)C(C)C)NC(=O)[C@@H]2CCCN2C(=O)[C@H](CCCNC(=N)N)NC(=O)[C@H](Cc2ccc(O)cc2)NC(=O)[C@H](C(C)C)NC(=O)[C@H](CCCNC(=N)N)NC(=O)CNC(=O)[C@H](CC(C)C)NC1=O [mammalian MCH]	–	displacement in radioimmunoassays ([1]; radioimmunoassays also run with synthetic salmon MCH): shows displacement; biological potency in mammalian assays [2]: more potent reaction than the alpha-MSH and beta-MSH antagonists; modulation of ACTH secretion/production [3]: very potent modulators of ACTH production
β-MSH	no cross-reactivity	–
rat GRF: rat growth hormone releasing factor (HADAIFTSSYRRILGQLYARKLLHEIMNRQQGERNQEQRSRFN; Somatoliberin; UniProt P09916 31-73, looked up)	no cross-reactivity	–
CC[C@H](C)[C@@H]1NC(=O)[C@H](Cc2ccc(O)cc2)NC(=O)[C@@H](N)CSSC[C@@H](C(=O)N2CCC[C@H]2C(=O)N[C@@H](CC(C)C)C(=O)NCC(N)=O)NC(=O)[C@H](CC(N)=O)NC(=O)[C@H](CCC(N)=O)NC1=O [oxytocin]	no cross-reactivity	–
rat ACTH: rat ACTH peptide hormone (SYSMEHFRWGKPVGKKRRPVKVYPNVAENESAEAFPLEF; Corticotropin; UniProt P01194 124-162, looked up)	no cross-reactivity	–
GnRH: GnRH peptide hormone (QHWSYGLRPG; ends and bridges not checked; UniProt P01148 24-33, looked up)	no cross-reactivity	–
β-endorphin (YGGFMTSEKSQTPLVTLFKNAIIKNAYKKGE; Beta-endorphin; UniProt P01189 237-267, looked up)	no cross-reactivity	–
rat CRF: rat corticotropin-releasing factor (SEEPPISLDLTFHLLREVLEMARAEQLAQQAHSNRKLMEII; ends and bridges not checked; UniProt P01143 145-185, looked up)	no cross-reactivity	–
